Reference: the supplement of paper PMC10307832

Legend:
Assay in all cases: relative viability (nuclei count vs DMSO), 5 days (fraction); higher = more cells survive
[1] = compound: C1COCCN1C2=CC(=O)C3=C(O2)C(=CC=C3)C4=CC=CC5=C4SC6=CC=CC=C56
In short: (§1)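 Viability here means nuclei in treated wells divided by nuclei in vehicle wells, reported as the median across plates. Only plates with control CV below 25% and at least one doubling passed. Lung cancer cell lines in 1536-well plates were exposed to five √10-spaced library-drug doses for 5 days and counted from 4× Hoechst images in MetaXpress.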

[2] = compound: CCN(CC)CCCCNc1ncc2cc(-c3cc(OC)cc(OC)c3)c(NC(=O)NC(C)(C)C)nc2n1
In short: as §1

[3] = compound: COCC1(CO)C(=O)C2CCN1CC2 [PRIMA-1MET]
In short: as §1

[4] = compound: COc1nc(C)cnc1NS(=O)(=O)c1cccnc1-c1ccc(-c2nnco2)cc1 [Zibotentan]
In short: as §1

[5] = compound: O=c1cc(-c2cccc3c2Sc2ccccc2S3)oc(N2CCOCC2)c1
In short: as §1

Cell Line	relative viability ([1]; 0.01 µM)	relative viability ([1]; 0.03162 µM)	relative viability ([1]; 0.1 µM)	relative viability ([1]; 0.3162 µM)	relative viability ([1]; 1 µM)	relative viability ([2]; 0.01 µM)	relative viability ([2]; 0.03162 µM)	relative viability ([2]; 0.1 µM)	relative viability ([2]; 0.3162 µM)	relative viability ([2]; 1 µM)	relative viability ([3]; 0.2 µM)	relative viability ([3]; 0.6325 µM)	relative viability ([3]; 2 µM)	relative viability ([3]; 6.325 µM)	relative viability ([3]; 20 µM)	relative viability ([4]; 0.08 µM)	relative viability ([4]; 0.253 µM)	relative viability ([4]; 0.8 µM)	relative viability ([4]; 2.53 µM)	relative viability ([5]; 0.08 µM)	relative viability ([5]; 0.253 µM)	relative viability ([5]; 0.8 µM)	relative viability ([5]; 2.53 µM)	relative viability ([5]; 8 µM)
PC-3 [JPC-3]	0.965	1.01	0.91	1.03	0.977	1.1	1.02	1.12	1.23	0.911	1.16	1	0.997	1.07	0.997	1.06	0.979	1.05	1.06	0.99	1.05	1.02	0.943	1.08
PC-14	0.936	0.993	0.981	1.09	0.971	1.09	1.06	1.18	1.25	0.966	1.06	0.956	0.944	1.05	0.688	1.04	0.873	1.05	1.02	1.02	1.18	0.981	0.87	1.06
RERF-LC-KJ	0.992	0.974	1.03	0.949	0.956	1.02	1.11	1.04	1.06	0.978	1.11	1.01	1.06	1.12	0.952	1.02	0.925	0.904	1.03	0.932	1.09	1.03	0.968	0.929
SK-LU-1	1.05	1.13	0.92	1.07	1.04	1.05	0.991	1.24	1.27	0.952	1.16	1.06	0.801	1.13	0.837	1.01	1.04	1.02	1.08	1.14	1.14	1.3	0.97	1.13
SK-MES-1	1	1	0.999	0.988	0.934	1.09	1.07	1.08	1.08	1.01	1.1	1	0.993	1.09	0.98	1.01	0.911	0.955	1.07	1	1.16	0.927	0.933	0.928
